Data reported in US8946260B2, “17α-hydroxylase/C17,20-lyase inhibitors” (Novartis AG, priority 2010, dated 2015).

molecular target: T1, recombinant Human CYP17 enzyme (17-20 lyase) (Homo sapiens, UniProt P05093); assay: Cytochrome P450, 17-20 lyase (CYP17-lyase) assay, 17-α-hydroxy pregnenolone [21-3H] as substrate; type: biochemical; conditions: at 10 μM; read-out: hCYP17 Lyase % Inh
T1 construct: made in house; host or cells: A549 cells, adenoviral expression system; purified cell membrane preparations
T1 sequence (P05093 1-508): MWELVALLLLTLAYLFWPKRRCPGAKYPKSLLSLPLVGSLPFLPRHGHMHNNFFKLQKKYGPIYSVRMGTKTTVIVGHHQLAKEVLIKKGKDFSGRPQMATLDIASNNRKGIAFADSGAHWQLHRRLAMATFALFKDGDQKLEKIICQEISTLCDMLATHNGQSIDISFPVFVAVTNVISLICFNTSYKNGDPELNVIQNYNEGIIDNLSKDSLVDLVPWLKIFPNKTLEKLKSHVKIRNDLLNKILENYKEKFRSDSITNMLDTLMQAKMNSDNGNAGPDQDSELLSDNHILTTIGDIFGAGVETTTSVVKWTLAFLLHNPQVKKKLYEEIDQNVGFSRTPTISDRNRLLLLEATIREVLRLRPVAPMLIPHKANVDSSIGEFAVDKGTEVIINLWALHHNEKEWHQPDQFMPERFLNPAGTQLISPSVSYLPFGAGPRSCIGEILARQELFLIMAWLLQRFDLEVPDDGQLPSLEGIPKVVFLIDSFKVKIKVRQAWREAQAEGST
Excerpt: 1) Cytochrome P450, 17-20 Lyase (CYP17-Lyase) Assay Development Using Recombinant Human CYP17 Enzyme and 17-α-Hydroxy Pregnenolone [21-3H] as the Substrate.
Cytochrome P450, 17-α-Hydroxylase, 17-20 lyase (CYP17) is a multi functional enzyme that plays a key role in the biosynthesis of steroid hormones. It catalyses both conventional hydroxylation and also the carbon-carbon bond cleavage reactions (Peter Lee-Robichaud et al, Biochem. J, (1997) 321, 857-63). In the hydroxylation reaction, it converts progesterone and pregnenolone to the corresponding hydroxylated products 17-α-hydroxy progesterone and 17-α-hydroxy pregnenolone. In the lyase reaction, it catalyzes the conversion of these hydroxylated substrates to Androstenedione and Dehydroepiandrosterone (DHEA) respectively. In the Cyp17 lyase assay described here, the conversion of 17-α-hydroxy pregnenolone to Dehydroepiandrosterone and acetic acid is being monitored.
Assay method was adopted from a published protocol with some modifications to suit our requirements (Dmitry N Grigoryev et al, Analytical Biochemistry, (1999) 267, 319-330). The conversion of 17-α-hydroxy pregnenolone to Dehydroepiandrosterone is accompanied by the release of acetic acid. In the Cyp17 lyase assay, 17-α-hydroxy pregnenolone labeled with tritium (3H) at position 21 is used as the substrate. Chloroform extraction removes the radioactive steroids and acetic acid is taken into aqueous layer. The tritiated acetic acid released in the assay thus extracted is quantified to determine the enzyme activity.
Initial buffer conditions were, 50 mM Phosphate buffer, pH 7.5 was used as the starting buffer for Cyp17 lyase activity based on the data published in US patent publication No. US2004/0198773 A1. […] Human Cyp 17 gene was cloned and expressed in Adenoviral expression system in A549 cell lines. The purified cell membrane preparations were used as the source for Human CYP17 enzyme. Total protein concentration: 8 mg/mL.
For routine screening, the assay was set up with 16 μg of enzyme in 50 μL reaction volume. 17α-hydroxy pregnenolone [21-3H] was added to a final concentration of 0.25 μM. NADPH is used at a final concentration of 4.2 mM. Total reaction volume was made up to 50 μL with 50 mM Phosphate buffer pH 7.5. The reaction mixture was incubated at room temperature for 90 minutes with gentle shaking. The reaction was stopped by the addition of 100 μL of buffer. 500 μL of 5% freshly prepared activated charcoal was added to the solution and mixed well by vortexing. The samples were centrifuged at 17568×g for 5 minutes. (14000 rpm). The supernatant was carefully transferred to fresh tube and 1.3 mL of scintillation fluid was added, mixed by vortexing.
The radioactivity was measured in a 1450 MicroBeta TriLux™ scintillation counter from Wallac-Perkin Elmer®, USA. The measurements were carried out in 2.0 mL Eppendorf™ tubes. Each tube was counted for 1 minute. The amount of tritiated acetic acid released is proportional to the lyase activity. Percent lyase activity in presence of inhibitor was calculated using the formula given below.
[formula] • Sample: Enzyme reaction in presence of inhibitor. • Positive control: Enzyme reaction without inhibitor but containing DMSO at 1% final concentration. • Blank—Contains all reagents except enzyme. • % Inhibition=100%−% Lyase activity
For IC50 determination, the % inhibition was plotted as a function of inhibitor concentration. The data was fitted to sigmoidal equation using Graphpad Prism® software IV to generate IC50 values.

inhibition at 10 µM | SMILES
91% | Cc1ccncc1N1CCc2ccsc2C1=O [Example 5A, 6-(4-Methyl-pyridin-3-yl)-5,6-dihydro-4H-thieno[2,3-c]pyridin-7-one]
75% | Cc1ccncc1N1CCc2sccc2C1=O [Example 7A, 5-(4-Methyl-pyridin-3-yl)-6,7-dihydro-5H-thieno[3,2-a]pyridin-4-one]
64% | Cc1ccncc1N1CCc2c(Cl)cccc2C1=O [Example 12A, 5-Chloro-2-(4-methyl-pyridin-3-yl)-3,4-dihydro-2H-isoquinolin-1-one]
35% | Cc1ccncc1N1CCc2ccc(NC(=O)C3CC3)cc2C1=O [Example 25A, Cyclopropanecarboxylic acid [2-(4-methyl-pyridin-3-yl)-1-oxo-1,2,3,4-tetrahydro-isoquinolin-7-yl]-amide]

Continued, molecule first:

SMILES | inhibition at 10 µM
O=C1c2sccc2CCN1c1cccnc1 [Example 6A, 6-Pyridin-3-yl-5,6-dihydro-4H-thieno[2,3-c]pyridin-7-one] | 48%
O=C1c2ccsc2CCN1c1cccnc1 [Example 8A, 5-Pyridin-3-yl-6,7-dihydro-5H-thieno[3,2-c]pyridin-4-one] | 27%
Cc1ccncc1N1CCc2scc(-c3ccc(F)cc3)c2C1=O [Example 15A, 3-(4-Fluoro-phenyl)-5-(4-methyl-pyridin-3-yl)-6,7-dihydro-5H-thieno[3,2-c]pyridin-4-one] | 35%
Cc1ccncc1N1CCc2c(cccc2C(F)(F)F)C1=O [Example 22A, 2-(4-Methyl-pyridin-3-yl)-5-trifluoromethyl-3,4-dihydro-2H-isoquinolin-1-one] | 42%
Cc1ccncc1-n1ccc2ccc(NC(=O)C3CC3)cc2c1=O [Example 24A, Cyclopropanecarboxylic acid [2-(4-methyl-pyridin-3-yl)-1-oxo-1,2-dihydro-isoquinolin-7-yl]-amide] | 53%
Cc1ccncc1-n1ccc2ccc(C(F)(F)F)cc2c1=O [Example 29A, 2-(4-Methyl-pyridin-3-yl)-7-trifluoromethyl-2H-isoquinolin-1-one] | 66%
Cc1ccncc1N1CCc2ccc(Nc3ccccc3)cc2C1=O [Example 30A, 2-(4-methylpyridin-3-yl)-7-(phenylamino)-3,4-dihydroisoquinolin-1(2H)-one] | 41%

same assay, conditions: human CYP17 lyase; substrate 0.25 μM; room temperature, 90 minutes; read-out: Lyase IC 50 nM Human

IC50 | SMILES
37 nM | Cc1ccncc1N1CCc2ccc(Cl)cc2C1=O [Example 2A, 7-Chloro-2-(4-methyl-pyridin-3-yl)-3,4-dihydro-2H-isoquinolin-1-one]
5.5 nM | Cc1ccncc1N1CCc2ccc(C(F)(F)F)cc2C1=O [Example 4A, 2-(4-Methyl-pyridin-3-yl)-7-trifluoromethyl-3,4-dihydro-2H-isoquinolin-1-one]
214 nM | COc1ccc2c(c1)CCN(c1cnccc1C)C2=O [Example 11A, 6-Methoxy-2-(4-methyl-pyridin-3-yl)-3,4-dihydro-2H-isoquinolin-1-one]
139 nM | Cc1ccncc1N1CCc2cc(O)ccc2C1=O [Example 11B, 6-Hydroxy-2-(4-methyl-pyridin-3-yl)-3,4-dihydro-2H-isoquinolin-1-one]
95 nM | Cc1ccncc1N1CCc2cc(C(F)(F)F)ccc2C1=O [Example 17A, 2-(4-Methyl-pyridin-3-yl)-6-trifluoromethyl-3,4-dihydro-2H-Isoquinolin-1-one]
227 nM | Cc1ccncc1N1CCc2ccccc2C1=O [Example 23A, 2-(4-Methyl-pyridin-3-yl)-3,4-dihydro-2H-isoquinolin-1-one]
17 nM | COc1ccc2c(c1)C(=O)N(c1cnccc1C)CC2 [Example 26A, 7-Methoxy-2-(4-methyl-pyridin-3-yl)-3,4-dihydro-2H-isoquinolin-1-one]
83 nM | Cc1ccncc1N1CCc2ccc(O)cc2C1=O [Example 27A, 7-Hydroxy-2-(4-methyl-pyridin-3-yl)-3,4-dihydro-2H-isoquinolin-1-one]
727 nM | Cc1ccncc1N1CCc2ccc(OCC3CC3)cc2C1=O [Example 31A, 7-(cyclopropylmethoxy)-2-(4-methylpyridin-3-yl)-3,4-dihydroisoquinolin-1 (2H)-one]
301 nM | Cc1ccncc1N1CCc2ccc(C#N)cc2C1=O [Example 32A, 2-(4-methylpyridin-3-yl)-1-oxo-1,2,3,4-tetrahydroisoquinoline-7-carbonitrile]

More lines, now with the values behind:

SMILES | IC50
O=C1c2cc(Cl)ccc2CCN1c1cccnc1 [Example 1A, 7-Chloro-2-pyridin-3-yl-3,4-dihydro-2H-isoquinolin-1-one] | 60 nM
Cc1ccncc1N1CCc2ccc(-c3ccc(F)cc3)cc2C1=O [Example 3A, 7-(4-Fluoro-phenyl)-2-(4-methyl-pyridin-3-yl)-3,4-dihydro-2H-isoquinolin-1-one] | 1210 nM
Cc1ccncc1N1CCc2sc3ccccc3c2C1=O [Example 9A, 2-(4-Methyl-pyridin-3-yl)-3,4-dihydro-2H-benzo[4,5]thieno[3,2-c]pyridin-1-one] | 1.5 nM
Cc1ccncc1N1CCc2ccc3ccccc3c2C1=O [Example 10A, 2-(4-Methyl-pyridin-3-yl)-3,4-dihydro-2H-benzo[h]isoquinolin-1-one] | 3.5 nM
COc1cccc2c1CCN(c1cnccc1C)C2=O [Example 13A, 5-Methoxy-2-(4-methyl-pyridin-3-yl)-3,4-dihydro-2H-isoquinolin-1-one] | 917 nM
Cc1ccncc1N1CCc2sc(-c3ccc(F)cc3)cc2C1=O [Example 14A, 2-(4-Fluoro-phenyl)-5-(4-methyl-pyridin-3-yl)-6,7-dihydro-5H-thieno[3,2-c]pyridin-4-one] | 755 nM
O=C1c2cc(C(F)(F)F)ccc2CCN1c1cccnc1 [Example 16A, 2-Pyridin-3-yl-7-trifluoromethyl-3,4-dihydro-2H-isoquinolin-1-one] | 175 nM
O=C1c2cc(C(F)(F)F)ccc2CCN1c1cncc(F)c1 [Example 18A, 2-(5-Fluoro-pyridin-3-yl)-7-trifluoromethyl-3,4-dihydro-2H-isoquinolin-1-one] | 334 nM
O=C1c2cc(C(F)(F)F)ccc2CCN1c1cncc2ccccc12 [Example 19A, 7-Trifluoromethyl-3,4-dihydro-[2,4′]biisoquinolinyl-1-one] | 44 nM
Cc1ccncc1N1CC(C)(C)c2ccc(C(F)(F)F)cc2C1=O [Example 20A, 4,4-Dimethyl-2-(4-methyl-pyridin-3-yl)-7-trifluoromethyl-3,4-dihydro-2H-isoquinolin-1-one] | 369 nM
O=C1c2cc(C(F)(F)F)ccc2CCN1c1cnccc1C(F)(F)F [Example 21A, 7-Trifluoromethyl-2-(4-trifluoromethyl-pyridin-3-yl)-3,4-dihydro-2H-isoquinolin-1-one] | 56 nM
CCn1ccc2c1C(=O)N(c1cnccc1C)CC2 [Example 28A, 1-Ethyl-6-(4-methyl-pyridin-3-yl)-1,4,5,6-tetrahydro-pyrrolo[2,3-c]pyridin-7-one] | 70 nM
